The values that follow come from US9050294B2, “Treatment of neural diseases or conditions” (Royal Institution for the Advancement of Learning/McGill …, priority 2008, dated 2015).

Series [1] deals with spinal cord injury (SCI) in BALB/c mice. The series can be described thus: Locomotor recovery after SCI, Basso Mouse Scale (BMS) open-field test. The series is classed as in vivo. As for the experimental part: (§1) Fenretinide preparation and treatment.
Locomotor recovery was evaluated in an open-field test using the Basso Mouse Scale (BMS) (Basso et al. (2006) J Neurotrauma 23: 635-659), which was specifically developed for locomotor testing after contusion injuries in mice. The BMS analysis of hindlimb movements and coordination was carried out by two independent trained assessors, and the consensus score taken. The final score is presented as mean±SEM. The BMS is a compressed scale with a maximum score of 9 as compared to the […] BBB scale for rats. Therefore small differences in the BMS can account for larger functional differences.

The test system is the same in series [2]. The series can be described thus: Oxidative stress markers (MDA, nitrotyrosine) in spinal cord after SCI, ELISA. The series is classed as in vivo, mouse. The following applies: 3 dpi, vs control mice.
Excerpt: as §1

The subject of a further series is microglial cells. The series can be described thus: Cell viability and cell de-attachment studies on microglial cells. Type of series: cell-based, mouse. The following applies: 0.625 and 1.25 μM.
The subject of series [3] is SOD1^G93A transgenic mice. The series can be described thus: Glial activation in L4 ventral horn (GFAP and Mac-2 immunohistochemistry). The series is classed as in vivo, mouse. The following applies: L4, 130 days of age; p≦0.05. As to the method:
(B) For ALS studies: Mice were deeply anaesthetized with a cocktail of ketamine (7.5 mg/ml) and xylazine (0.5 mg/ml) administered via intraperitoneal injection at a dose of 20 ml/kg of body weight. Animals were then sacrificed by transcardial perfusion with 4% paraformaldehyde in 0.1M phosphate buffered saline (PBS). The fourth lumbar spinal cord segment, identified by its contribution to the sciatic nerve was carefully removed, post-fixed for 1 hour in 4% paraformaldehyde solution and cryoprotected overnight in 30% sucrose in 0.1M PBS. […] Images were imported into SigmaScan™ Pro Image Measurement Software Version 5.0.0 (SPSS Inc., Chicago, Ill.) and activated astrocytes and microglia were quantified by exceeding an intensity threshold. […] Serial sections from a separate set were stained for Nissle body detection using cresyl violet staining and the number of motor neurons surviving in the ventral horn were quantified.
Immunohistochemistry was also performed on different serial sections from the same animals. […] Images of both ventral horns were captured every 300 μm and imported into SigmaScan™ Pro image quantification software. The area occupied by darkly stained cells was quantified and normalized for the total area.

Series [4] relates to spinal cord injury (SCI) in BALB/c mice. The experiment in a line: AA and DHA levels in plasma and spinal cord after spinal cord contusion (lipid analysis, GC/MS). The settings on record: 5 mg/kg/day oral.
Description: Adult (8-10 weeks old) female BALB/c mice (Charles River Canada) were anaesthetized with ketamine:xylazine:acepromazine (50:5:1 mg/kg). After performing a laminectomy at the 11th thoracic vertebrae, the exposed spinal cord was contused using the Infinite™ Horizons Impactor device (Precision Scientific Instrumentation, Lexington, Ky.). Moderate injuries were made using a force of 50 kDynes and tissue displacements ranging between 400-600 μm (Ghasemlou et al. (2005) Exp. Neurol. 196: 9-17).
Fenretinide preparation and treatment. Fenretinide powder was resuspended in 95% ethanol under sterile conditions to generate a 2 μg/μL stock solution. This solution was incorporated into a daily liquid diet of Peptamen™ (Nestle Canada, Brampton, ON) at a dose of 5 mg/kg/day for oral consumption as described previously (Guilbault et al. (2008) Am J Respir Cell Mol Biol 38: 47-56). The suspension was protected from light and kept at 4° C. before treatment of the mice. One hour following surgery and for the subsequent three days, fenretinide was administered by gavage in two doses, each suspended in 300 μL of Peptamen™. Gavage was chosen as the method of drug delivery immediately after surgery due to the loss of appetite and reduced food intake during the first 48 h after injury. After day three, mice were fed the fenretinide/Peptamen™ mixture. At this point mice were separated into individual cages in order to ascertain the amount of food and drug consumed. Following day 3, the diet was administered every morning with careful monitoring of the quantity consumed by each mouse. More specifically, the daily fenretinide dose was incorporated into 12 ml of Peptamen™, which represents 80% of the daily mouse food consumption, to ensure 100% consumption. The food was given to the mice in the mid-morning. The diet for control animals was prepared and administered in the same fashion as the drug treatment; however, control animals received Peptamen™ with no fenretinide added but with an equivalent amount of ethanol.
(A) For SCI studies: in order to establish plasma kinetics, blood samples were taken from the saphenous vein at day 0, 1, 3, 7, 11, and 21 post-injury. On day 28, blood samples were obtained by intra-cardiac puncture. All blood samples were mixed with 10 μl of EDTA to prevent coagulation and centrifuged at 350×g for 7 minutes at 4° C. The plasma was then removed and lipids were extracted with chloroform-methanol (2:1 vol/vol) containing 1 mM butylated hydroxyanisole (BHA), as previously described (Folch et al. (1957) J Biol Chem 226: 497-509). The lipid fractions were dried under nitrogen and resuspended in heptane as previously described (De Sanctis (1991) Med Sci Res 19: 335-337). Phospholipids were identified by thin layer chromatography extraction. Diazomethane was used to esterify the released fatty acids and the esters were identified by GC/MS (Hewlett Packard 5880A, WCOT) capillary column (Supelco™-10, 35 m×0.5 mm, 1 μm thick) using commercial standards (Sigma-Aldrich, Oakville, ON, Canada). Total levels of DHA and AA as well as phospholipid-bound DHA, phospholipid-bound AA, malonyldialdehyde (MDA) and nitrotyrosine were assessed in both plasma and spinal cord samples.

Entries after “also recorded” stand apart in the source; their conditions may differ.

`CC1=C(/C=C/C(C)=C/C=C/C(C)=C/C(=O)Nc2ccc(O)cc2)C(C)(C)CCC1` [fenretinide, all-trans-N-(4-hydroxyphenyl) retinamide] yielded a BMS score in series [1] (5 mg/kg/day oral started 1 h after SCI, 28 dpi, 9-point scale, vehicle 4.6) of 5.8. The “mean BMS subscore higher than vehicle-treated mice” value in series [1] (5 mg/kg/day oral, 28 dpi) came out at 2.2 points. Moreover, in series [1] (5 mg/kg/day oral, day 7 to 28 after SCI), the “fine locomotor skills (BMS subscores) vs vehicle” value was “significant improvement”. The “locomotor function (BMS) vs vehicle-treated mice” value in series [1] (5 mg/kg/day oral, significant from day 7 after SCI) is recorded as “improved locomotor function; also recorded: significantly enhanced motor skills”. Moreover, in series [2], the “decrease of malonyldialdehyde (MDA) level in spinal cord” value was “about 2 fold” and the “decrease of nitrotyrosine level in spinal cord” value is “about 2 fold”. Moreover, in the series with microglial cells, the “toxic effects on the cells (cell viability, cell de-attachment)” value is reported as “did not have any toxic effects”. Further, in series [3], the “GFAP staining of ventral horn: sham-treated mice greater than fenretinide-treated” value is “more than 50%” and the “Mac-2 positive stained area: control animals more than fenretinide-treated” value was found to be 60%. For the same molecule, the “plasma docosahexaenoic acid (DHA) levels vs vehicle-treated mice” value in series [4] (started 1 h after SCI, 3 to 28 dpi) is given as “concomitant increase; also recorded: significantly higher”. The “plasma arachidonic acid (AA) levels vs vehicle-treated mice” value in series [4] (started 1 h after SCI, day 1 to 28 after SCI) is “significant reduction”. Besides, in series [4] (3 dpi), the “AA level in injured spinal cord vs vehicle” value is listed as “significant decrease” and the “DHA level in injured spinal cord vs vehicle” value is “increase”.
